From ChEMBL document CHEMBL5143526, “Acridine-O6-benzylguanine hybrids: Synthesis, DNA binding, MGMT inhibition and antiproliferative activity” (Eur J Med Chem, 2022)
Active and inactive are the calls of the source. No cut-off for these calls is given here.

Legend:
T98G [1] = experiment: Antiproliferative activity against human T98G cells assessed as cell growth inhibition incubated for 96 hrs by CellTiter-Glo luminescent cell viability assay; format: functional
T98G [2] = experiment: Antiproliferative activity against human T98G cells assessed as cell viability at 25 uM incubated for 96 hrs by CellTiter-Glo luminescent cell viability assay relative to control; format: functional; conditions: read-out: Activity
T98G [3] = experiment: Synergistic antiproliferative activity against human T98G cells assessed as reduction in cell viability at 25 uM pretreated for 2 hrs followed by TMZ addition at 94 uM and measured after 94 hrs by CellTiter-Glo luminescent cell viability assay; format: functional, cell-based; conditions: time 96.0 hrs
T98G [4] = experiment: Additive antiproliferative activity against human T98G cells assessed as reduction in cell viability at 25 uM pretreated for 2 hrs followed by TMZ addition at 188 uM and measured after 94 hrs by CellTiter-Glo luminescent cell viability assay; format: functional, cell-based; conditions: time 96.0 hrs
T98G [5] = experiment: Additive antiproliferative activity against human T98G cells assessed as reduction in cell viability at 25 uM pretreated for 2 hrs followed by TMZ addition at 375 uM and measured after 94 hrs by CellTiter-Glo luminescent cell viability assay; format: functional, cell-based; conditions: time 96.0 hrs
T98G [6] = experiment: Antiproliferative activity against human T98G cells assessed as cell viability at 94 uM incubated for 96 hrs by CellTiter-Glo luminescent cell viability assay relative to control; format: functional; conditions: read-out: Activity
T98G [7] = experiment: Antiproliferative activity against human T98G cells assessed as cell viability at 188 uM incubated for 96 hrs by CellTiter-Glo luminescent cell viability assay relative to control; format: functional; conditions: read-out: Activity
T98G [8] = experiment: Antiproliferative activity against human T98G cells assessed as cell viability at 375 uM incubated for 96 hrs by CellTiter-Glo luminescent cell viability assay relative to control; format: functional; conditions: read-out: Activity
T98G [9] = experiment: Antagonistic antiproliferative activity against human T98G cells assessed as reduction in cell viability at 25 uM pretreated for 2 hrs followed by TMZ addition at 375 uM and measured after 94 hrs by CellTiter-Glo luminescent cell viability assay; format: functional, cell-based; conditions: time 96.0 hrs
Calf thymus DNA [10] = experiment: Binding affinity to calf thymus DNA assessed as ligand-induced thermal stabilization of DNA duplex by measuring change in melting temperature at 6.25 uM by thermal denaturation analysis; format: nucleic-acid assay; conditions: Bos taurus
T98G [11] = experiment: Antagonistic antiproliferative activity against human T98G cells assessed as reduction in cell viability at GI50 pretreated for 2 hrs followed by TMZ addition at 94 uM and measured after 94 hrs by CellTiter-Glo luminescent cell viability assay; format: functional, cell-based; conditions: time 96.0 hrs
T98G [12] = experiment: Antagonistic antiproliferative activity against human T98G cells assessed as reduction in cell viability at GI50 pretreated for 2 hrs followed by TMZ addition at 188 uM and measured after 94 hrs by CellTiter-Glo luminescent cell viability assay; format: functional, cell-based; conditions: time 96.0 hrs
T98G [13] = experiment: Antagonistic antiproliferative activity against human T98G cells assessed as reduction in cell viability at GI50 pretreated for 2 hrs followed by TMZ addition at 375 uM and measured after 94 hrs by CellTiter-Glo luminescent cell viability assay; format: functional, cell-based; conditions: time 96.0 hrs
[14] = Thermal stability of compound in aqueous solution at 10 uM at 20 to 75 degreeC by UV-vis absorption spectroscopy; format: physicochemical; conditions: buffer
[15] = Fluorescence property of compound in MeCN assessed as quantum yield; format: physicochemical
[16] = Fluorescence property of compound in THF assessed as quantum yield; format: physicochemical
[17] = Fluorescence property of compound in MeOH assessed as quantum yield; format: physicochemical
[18] = Fluorescence property of compound in aqueous solution assessed as quantum yield; format: physicochemical; conditions: buffer
Calf thymus DNA [19] = experiment: Binding affinity to calf thymus DNA assessed as intercalation by measuring dissociation constant at 20 uM measured after 5 mins by UV-Vis spectrophotometric titration analysis; format: nucleic-acid assay, Bos taurus
T98G [20] = experiment: Additive antiproliferative activity against human T98G cells assessed as reduction in cell viability at 25 uM pretreated for 2 hrs followed by TMZ addition at 94 uM and measured after 94 hrs by CellTiter-Glo luminescent cell viability assay; format: functional, cell-based; conditions: time 96.0 hrs
T98G [21] = experiment: Additive antiproliferative activity against human T98G cells assessed as reduction in cell viability at GI50 pretreated for 2 hrs followed by TMZ addition at 188 uM and measured after 94 hrs by CellTiter-Glo luminescent cell viability assay; format: functional, cell-based
T98G [22] = experiment: Additive antiproliferative activity against human T98G cells assessed as reduction in cell viability at GI50 pretreated for 2 hrs followed by TMZ addition at 375 uM and measured after 94 hrs by CellTiter-Glo luminescent cell viability assay; format: functional, cell-based; conditions: time 96.0 hrs
HT-29 = experiment: Growth inhibition of human HT-29 cells measured after 24 hrs; format: functional
T98G [23] = experiment: Induction of DNA damage in human T98G cells assessed as increase in gammaH2AX foci number and size at 92 uM pretreated for 2 hrs followed by TMZ addition and measured after 94 hrs by DAPI staining based immunofluorescence assay; format: functional, cell-based; conditions: time 96.0 hrs
T98G [24] = experiment: Induction of apoptosis in human T98G cells assessed as increase in early apoptotic cells at 92 uM pretreated for 2 hrs followed by TMZ addition and measured after 96 hrs by Annexin V-FITC/PI staining based flow cytometry analysis (reference value: 2 %); format: functional; conditions: time 98 hrs
[25] = Drug localization in cytosolic region of human T98G cells at 1.1 uM measured after 96 hrs by confocal microscope based live cell imaging analysis; format: ADME, subcellular; conditions: cytosol
[26] = Drug localization in perinuclear region of nuclear membrane of human T98G cells assessed as appearance of z-stacked series at 1.1 uM measured after 96 hrs by confocal microscope based live cell imaging analysis; format: ADME, cell membranes
T98G [27] = experiment: Induction of apoptosis in human T98G cells assessed as increase in early apoptotic cells at 1.1 uM measured after 96 hrs by Annexin V-FITC/PI staining based flow cytometry analysis relative to control; format: functional
T98G [28] = experiment: Induction of apoptosis in human T98G cells assessed as increase in early apoptotic cells at 1.1 uM pretreated for 2 hrs followed by TMZ addition and measured after 96 hrs by Annexin V-FITC/PI staining based flow cytometry analysis relative to control; format: functional; conditions: time 98 hrs
T98G [29] = experiment: Synergistic antiproliferative activity against human T98G cells assessed as reduction in cell viability at GI50 pretreated for 2 hrs followed by TMZ addition at 94 uM and measured after 94 hrs by CellTiter-Glo luminescent cell viability assay; format: functional, cell-based; conditions: time 96.0 hrs
T98G [30] = experiment: Synergistic antiproliferative activity against human T98G cells assessed as reduction in cell viability at GI50 pretreated for 2 hrs followed by TMZ addition at 375 uM and measured after 94 hrs by CellTiter-Glo luminescent cell viability assay; format: functional, cell-based; conditions: time 96.0 hrs
Calf thymus DNA [31] = experiment: Displacement of ethidium bromide from calf thymus DNA incubated for 30 mins by fluorescence microplate reader assay; format: nucleic-acid assay, Bos taurus
Calf thymus DNA [32] = experiment: Binding affinity to calf thymus DNA assessed as ligand induced positive CD band at 50 uM by Circular dichroism spectroscopy analysis; format: nucleic-acid assay; conditions: Bos taurus
[33] = tested on: Panel NCI-60 (60 carcinoma cell lines); experiment: Antiproliferative activity against human Panel NCI-60 (60 carcinoma cell lines) assessed as cell growth inhibition incubated for 48 hrs; format: functional

Compound: NCCCCn1cnc2c(OCc3ccccc3)nc(N)nc21
- GI50 (T98G [1]): > 25 µM
- viability at 25 µM (T98G [2]): ≥ 70%
- Activity (T98G [3]): Active
- Activity (T98G [4]): Active
- Activity (T98G [5]): Active

Compound: Cn1nnc2c(C(N)=O)ncn2c1=O [TEMOZOLOMIDE]
- GI50 (T98G [1]): 375 µM
- viability at 94 µM (T98G [6]): 100%
- viability at 188 µM (T98G [7]): 63%
- viability at 375 µM (T98G [8]): 50%

Compound: Nc1nc(OCc2ccccc2)c2ncn(CCCCN3C(=O)c4ccccc4C3=O)c2n1
- GI50 (T98G [1]): > 25 µM
- viability at 25 µM (T98G [2]): ≥ 70%
- Activity (T98G [3]): Active
- Activity (T98G [4]): Active
- Activity (T98G [9]): Active

Compound: COc1ccc2nc3cc(Cl)ccc3c(NCCCCCCCCn3cnc4c(OCc5ccccc5)nc(N)nc43)c2c1
- ΔTm (Calf thymus DNA [10]): 0.7 °C
- GI50 (T98G [1]): 14.5 µM
- Activity (T98G [11]): Active
- Activity (T98G [12]): Active
- Activity (T98G [13]): Active
- Stability [14]: Stable
- Activity [15]: 0.09
- Activity [16]: 0.08
- Activity [17]: 0.05
- Activity [18]: 0.05

Compound: COc1ccc2nc3cc(Cl)ccc3c(NCCOCCOCC(=O)NCc3cccc(COc4nc(N)nc5[nH]cnc45)c3)c2c1
- Kd (Calf thymus DNA [19]): 23.4 µM
- ΔTm (Calf thymus DNA [10]): -0.7 °C
- GI50 (T98G [1]): 25 µM
- Activity (T98G [20]): Active
- Activity (T98G [12]): Active
- Activity (T98G [13]): Active
- Stability [14]: Stable
- Activity [15]: 0.05
- Activity [16]: 0.06
- Activity [17]: 0.06
- Activity [18]: 0.01

Compound: COc1ccc2nc3cc(Cl)ccc3c(NCCCCn3cnc4c(Oc5ccccc5)nc(N)nc43)c2c1
- GI50 (T98G [1]): 0.8 µM
- Activity (T98G [20]): Active
- Activity (T98G [21]): Active
- Activity (T98G [22]): Active

Compound: Nc1nc(OCc2ccccc2)c2nc[nH]c2n1 [6-O-BENZYLGUANINE]
- GI50 (T98G [1]): 91.8 µM
- GI50 (HT-29): > 100 µM
- Activity (T98G [23]): Active
- Activity (T98G [24]): 8%
- Activity (T98G [3]): Active
- Activity (T98G [4]): Active
- Activity (T98G [5]): Active

Compound: COc1ccc2nc3cc(Cl)ccc3c(NCCC(=O)NCc3cccc(COc4nc(N)nc5[nH]cnc45)c3)c2c1
- Kd (Calf thymus DNA [19]): 16.2 µM
- ΔTm (Calf thymus DNA [10]): 1.5 °C
- GI50 (T98G [1]): 15.6 µM
- Activity (T98G [20]): Active
- Activity (T98G [12]): Active
- Activity (T98G [22]): Active
- Stability [14]: Stable
- Activity [15]: 0.06
- Activity [16]: 0.12
- Activity [17]: 0.07
- Activity [18]: 0.08

Compound: COc1ccc2nc3cc(Cl)ccc3c(NCCCCn3cnc4c(=O)[nH]c(N)nc43)c2c1
- GI50 (T98G [1]): > 25 µM
- Activity (T98G [21]): Active
- Activity (T98G [22]): Active

Compound: COc1ccc2nc3cc(Cl)ccc3c(NCCCCn3cnc4c(OCc5ccccc5)nc(N)nc43)c2c1
- Kd (Calf thymus DNA [19]): 19.1 µM
- ΔTm (Calf thymus DNA [10]): 0.6 °C
- GI50 (T98G [1]): 1.1 µM
- Drug uptake [25]: Active
- Drug uptake [26]: Active
- Activity (T98G [27]): 10%
- Activity (T98G [28]): 11%
- Activity (T98G [29]): Active
- Activity (T98G [21]): Active
- Activity (T98G [30]): Active
- Stability [14]: Stable
- Activity [15]: 0.07
- Activity [16]: 0.09
- Activity [17]: 0.06
- Activity [18]: 0.01

Compound: NCc1cccc(COc2nc(N)nc3nc[nH]c23)c1
- GI50 (T98G [1]): > 25 µM
- Activity (T98G [3]): Active
- Activity (T98G [4]): Active
- Activity (T98G [5]): Active

Compound: COc1ccc2nc3cc(Cl)ccc3c(N)c2c1
- Kd (Calf thymus DNA [19]): 16.1 µM
- ΔTm (Calf thymus DNA [10]): 8.5 °C
- EC50 (Calf thymus DNA [31]): 8 µM
- Activity (Calf thymus DNA [32]): Active
- GI50 (T98G [1]): 0.6 µM
- GI50 [33]: 1 µM
- Activity (T98G [29]): Active
- Activity (T98G [21]): Active
- Activity [15]: 0.22
- Activity [16]: 0.22
- Activity [17]: 0.42
- Activity [18]: 0.36

Compound: COc1ccc2nc3cc(Cl)ccc3c(NCCOCCOCCn3cnc4c(OCc5ccccc5)nc(N)nc43)c2c1
- Kd (Calf thymus DNA [19]): 13.4 µM
- ΔTm (Calf thymus DNA [10]): -1.4 °C
- GI50 (T98G [1]): 2.1 µM
- Activity (T98G [29]): Active
- Activity (T98G [21]): Active
- Activity (T98G [30]): Active
- Stability [14]: Stable
- Activity [15]: 0.09
- Activity [16]: 0.09
- Activity [17]: 0.06
- Activity [18]: < 0.01

Compound: COc1ccc2nc3cc(Cl)ccc3c(NCCCCCCCC(=O)NCc3cccc(COc4nc(N)nc5[nH]cnc45)c3)c2c1
- Kd (Calf thymus DNA [19]): 14.3 µM
- ΔTm (Calf thymus DNA [10]): 0.2 °C
- GI50 (T98G [1]): 19.4 µM
- Activity (T98G [20]): Active
- Activity (T98G [21]): Active
- Activity (T98G [13]): Active
- Stability [14]: Stable
- Activity [15]: 0.04
- Activity [16]: 0.06
- Activity [17]: 0.06
- Activity [18]: 0.01
